Test system: 556581-035-R-J1-PDC spheroids with HUVEC/MSC, viability
Assay: Anticancer human tumor 556581-035-R-J1-PDC patient-derived ovarian carcinoma cell line growth inhibition [IpAb]
Conditions: for IC50: curve of first compound; for viability, T/C: stronger effect = lower value
From the text: Combinatorial screen of targeted agents with ipatasertib and abemaciclib in multi-cell type tumor spheroids
A high-throughput screen of multi-cell type tumor spheroids was designed to identify active combinations of targeted small molecules and ipatasertib or abemaciclib. Complex spheroids include a stromal component modeled by human endothelial cells (HUVEC) and fibroblasts modeled by human mesenchymal stem cells (MSCs). The concentration ranges selected for each drug and investigational agent were based upon clinically achievable concentrations if the clinical Cmax of the agent was known.
Compounds. The drugs and investigational agents: ipatasertib (NSC767898), abemaciclib(NSC768073), selumetinib (NSC741078), trametinib (758246), adavosertib (NSC754352), everolimus (NSC733504), sapanisertib (NSC764658), vemurafenib (NSC761431), venetoclax (NSC766270), copanlisib (NSC809693), apelisib (NSC765974), palbociblib (NSC758247), vemurafenib (NSC761431), dabrafenib (NSC764134), ravoxertinib (NSC781343), BMS-387032 (NSC767048), sotorasib (NSC818433), talazoparib (NSC767125) and afursertib (NSC778305), were obtained from the National Cancer Institute (NCI) Developmental Therapeutics Program Chemical Repository. The FDA-approved anticancer drug set is available from the NCI Developmental Therapeutics Program. […] The stock solutions were prepared in dimethyl sulfoxide (DMSO, Sigma-Aldrich, St. Louis, MO, cat. D2650) at 800-fold the tested concentration and stored at -70 degrees C prior to their use. All drugs and investigational agents were tested over a range starting from a high concentration at or near the clinical Cmax and decreasing in half-log increments. If the clinical Cmax for an agent had not been determined, the highest concentration tested was 10 microM.
NCI60 Cell Culture. NCI60 cell lines were obtained from the NCI Developmental Therapeutics Program Tumor Repository. For each lot of cells, the Repository performed Applied Biosystems AmpFLSTR Identifiler testing with PCR amplification to confirm consistency with the published Identifier STR profile for each cell line. Cells were kept in continuous culture for no more than 20 passages. The optimal seeding densities for each of the cell lines at each time point assessed were determined prior to performing the concentration response studies. Briefly, the NCI60 human tumor lines were grown as monolayers in RPMI 1640 medium supplemented with 10% FBS and 2 mmol/L L-glutamine.
An additional 9 lines were from the NCI60 cell line panel including MDA-MB-231 breast carcinoma, MDA-MB-468 breast carcinoma, MCF7 breast carcinoma, Hs578T breast carcinoma, MALME-3M melanoma, SK-MEL-2 melanoma, SK-OV-3 ovarian carcinoma, DU-145 prostate carcinoma, PC-3 prostate carcinoma, all cell lines along with major genetic alterations are listed on Table 2. Pooled donor human umbilical vein endothelial cells (HUVEC, Lonza, cat. CC-2519) and human mesenchymal stem cells (hMSC, Lonza, cat. PT-2501) were purchased from Lonza (Walkersville, MD).
PDMR cell lines were grown in complete medium (DC medium): Dulbecco's modified Eagle's medium (DMEM)/F12 supplemented with 5% fetal bovine serum (FBS), 2 mM L-glutamine, 100 U/mL penicillin and 100 µg/ml streptomycin, 0.4 µg/ml hydrocortisone, 10 ng/ml epidermal growth factor (EGF) recombinant human protein, 24 µg/mL adenine, and 0.1 mg/mL primocin. During culture from frozen stock vials, PDMR cells were cultured in the same medium containing 10 µM Y-27632 (see Table 3). The PDCs were cultured in complete DMEM/F12 media without 10 microM Y-27632 dihydrochloride for at least two passages prior to the screen. The pooled donor HUVEC and hMSC were cultured in endothelial cell growth medium 2 (PromoCell, Heidelberg, Germany, cat. C-22011) and mesenchymal stem cell growth medium 2 (PromoCell, cat. C-28009), respectively. For all experiments, HUVEC and hMSC were used at passages </=5.
[…]

[1] = second compound 0.01 µM, first compound 0.0316 µM
[2] = second compound 0.01 µM, first compound 0.1 µM
[3] = second compound 0.01 µM, first compound 0.316 µM
[4] = second compound 0.01 µM, first compound 1 µM
[5] = second compound 0.01 µM, first compound 3.16 µM
[6] = second compound 0.01 µM, first compound 10 µM
[7] = second compound 0.0316 µM, first compound 0.0316 µM
[8] = second compound 0.0316 µM, first compound 0.1 µM
[9] = second compound 0.0316 µM, first compound 0.316 µM
[10] = second compound 0.0316 µM, first compound 1 µM
[11] = second compound 0.0316 µM, first compound 3.16 µM
[12] = second compound 0.0316 µM, first compound 10 µM
[13] = second compound 0.1 µM, first compound 0.0316 µM
[14] = second compound 0.1 µM, first compound 0.1 µM
[15] = second compound 0.1 µM, first compound 0.316 µM
[16] = second compound 0.1 µM, first compound 1 µM
[17] = second compound 0.1 µM, first compound 3.16 µM
[18] = second compound 0.1 µM, first compound 10 µM
[19] = second compound 0.316 µM, first compound 0.0316 µM
[20] = second compound 0.316 µM, first compound 0.1 µM
[21] = second compound 0.316 µM, first compound 0.316 µM
[22] = second compound 0.316 µM, first compound 1 µM
[23] = second compound 0.316 µM, first compound 3.16 µM
[24] = second compound 0.316 µM, first compound 10 µM
[25] = second compound 1 µM, first compound 0.0316 µM
[26] = second compound 1 µM, first compound 0.1 µM
[27] = second compound 1 µM, first compound 0.316 µM
[28] = second compound 1 µM, first compound 1 µM
[29] = second compound 1 µM, first compound 3.16 µM
[30] = second compound 1 µM, first compound 10 µM
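Further: spheroids exposed to compounds for 7 days before readout.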

Compound	IC50 (second compound 0.01 µM) [nM]	IC50 (second compound 0.0316 µM) [nM]	IC50 (second compound 0.1 µM) [nM]	IC50 (second compound 0.316 µM) [nM]	IC50 (second compound 1 µM) [nM]	viability, T/C [1] [%]	viability, T/C [2] [%]	viability, T/C [3] [%]	viability, T/C [13] [%]	viability, T/C [14] [%]	viability, T/C [15] [%]	viability, T/C [16] [%]	viability, T/C [19] [%]	viability, T/C [20] [%]	viability, T/C [21] [%]	viability, T/C [22] [%]	viability, T/C [25] [%]	viability, T/C [26] [%]	viability, T/C [27] [%]	viability, T/C [28] [%]	also measured
C=CCn1c(=O)c2cnc(Nc3ccc(N4CCN(C)CC4)cc3)nc2n1-c1cccc(C(C)(C)O)n1 + CCN1CCN(Cc2ccc(Nc3ncc(F)c(-c4cc(F)c5nc(C)n(C(C)C)c5c4)n3)nc2)CC1	233	225	211	177	36.8	96.9	81.9	32.1	83.3	66.3	31.8	40.9	91.4	60.7	29.2	38.1	54.5	41.1	32.9	31.5	viability, T/C [4]: 35.9%; viability, T/C [5]: 42%; viability, T/C [6]: 44.4%; viability, T/C [7]: 102%; viability, T/C [8]: 78.4%; viability, T/C [9]: 27.8%; viability, T/C [10]: 37.2%; viability, T/C [11]: 51.3%; viability, T/C [12]: 36.3%; viability, T/C [17]: 50.6%; viability, T/C [18]: 41.4%; viability, T/C [23]: 48.1%; viability, T/C [24]: 40.7%; viability, T/C [29]: 42.5%; viability, T/C [30]: 13.9%
COc1c(OCCCN2CCOCC2)ccc2c3n(c(=NC(=O)c4cnc(N)nc4)nc12)CCN3 + CC(C)NCC(C(=O)N1CCN(c2ncnc3c2C(C)CC3O)CC1)c1ccc(Cl)cc1	–	–	25.4	31.6	19	–	–	–	45.6	36.1	16.5	3.99	55.1	31.5	15.6	2.82	42	36.3	14.6	2.64	IC50 (second compound 3.16 µM): 13.9 nM; IC50 (second compound 10 µM): 3.33 nM; viability, T/C (second compound 0.1 µM, first compound 0.00316 µM): 73.8%; viability, T/C (second compound 0.1 µM, first compound 0.01 µM): 61.1%; viability, T/C (second compound 0.316 µM, first compound 0.00316 µM): 91.6%; viability, T/C (second compound 0.316 µM, first compound 0.01 µM): 62.8%; viability, T/C (second compound 1 µM, first compound 0.00316 µM): 64.1%; viability, T/C (second compound 1 µM, first compound 0.01 µM): 57%; viability, T/C (second compound 3.16 µM, first compound 0.00316 µM): 50.2%; viability, T/C (second compound 3.16 µM, first compound 0.01 µM): 45.2%; viability, T/C (second compound 3.16 µM, first compound 0.0316 µM): 55.3%; viability, T/C (second compound 3.16 µM, first compound 0.1 µM): 39.3%; viability, T/C (second compound 3.16 µM, first compound 0.316 µM): 11.8%; viability, T/C (second compound 3.16 µM, first compound 1 µM): 5.41%; viability, T/C (second compound 10 µM, first compound 0.00316 µM): 52%; viability, T/C (second compound 10 µM, first compound 0.01 µM): 42.8%; viability, T/C (second compound 10 µM, first compound 0.0316 µM): 38.5%; viability, T/C (second compound 10 µM, first compound 0.1 µM): 33.6%; viability, T/C (second compound 10 µM, first compound 0.316 µM): 14.7%; viability, T/C (second compound 10 µM, first compound 1 µM): 5.1%
C=CC(=O)N1CCN(c2nc(=O)n(-c3c(C)ccnc3C(C)C)c3nc(-c4c(O)cccc4F)c(F)cc23)C(C)C1 (stereo not given) + CCN1CCN(Cc2ccc(Nc3ncc(F)c(-c4cc(F)c5nc(C)n(C(C)C)c5c4)n3)nc2)CC1	7370	7290	7020	4110	143	102	108	105	94.1	109	103	124	85.3	93.3	108	106	50.1	50.2	51.6	42	viability, T/C [4]: 119%; viability, T/C [5]: 91%; viability, T/C [6]: 35.2%; viability, T/C [7]: 91.2%; viability, T/C [8]: 107%; viability, T/C [9]: 104%; viability, T/C [10]: 107%; viability, T/C [11]: 108%; viability, T/C [12]: 29.7%; viability, T/C [17]: 94.4%; viability, T/C [18]: 30.1%; viability, T/C [23]: 56.4%; viability, T/C [24]: 28.1%; viability, T/C [29]: 34.2%; viability, T/C [30]: 17.6%
